Experimental data taken from patent publication US20080039455A1, “PYRAZOLOPYRIMIDINES AND SALTS THEREOF, PHARMACEUTICAL COMPOSITIONS COMPRISING SAME, METHODS OF PREPARING SAME AND USES OF SAME” (priority 2006, published 2008).
Where a name gives a salt, the structure may show the parent alone.

molecular target: T1, human recombinant ALK1 (GST fused to ALK1 intracellular domain [His142-Gln503]) (Homo sapiens, UniProt P37023); test: ALK1-Kinase Flashplate-Assay; type: biochemical; conditions: 0.5 μM ATP, biotinylated α-casein substrate; read-out: Assay 1 (ALK1-Kinase Flashplate-Assay IC50 class)
T1 construct: GST fused to ALK1 intracellular domain [His142-Gln503]; made in house
T1 sequence (P37023 142-503): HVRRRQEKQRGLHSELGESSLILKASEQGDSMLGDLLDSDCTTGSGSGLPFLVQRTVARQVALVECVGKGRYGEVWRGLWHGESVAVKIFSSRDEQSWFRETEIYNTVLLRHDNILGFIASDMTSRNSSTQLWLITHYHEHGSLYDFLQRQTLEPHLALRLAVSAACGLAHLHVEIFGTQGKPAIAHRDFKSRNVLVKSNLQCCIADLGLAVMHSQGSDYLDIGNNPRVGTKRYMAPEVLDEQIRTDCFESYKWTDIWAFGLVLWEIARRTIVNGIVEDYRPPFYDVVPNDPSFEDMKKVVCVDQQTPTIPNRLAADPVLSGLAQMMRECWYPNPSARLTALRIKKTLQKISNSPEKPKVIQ
Procedure, shortened: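 Radiometric Flashplate assay at 20 °C: GST-ALK1 intracellular domain (5 ng/well) with 1 μM biotinylated bovine α-casein, 0.5 μM ATP plus [γ-33P]ATP in Tris pH 8.0, 1 mM MnCl2, 1% or 5% DMSO, 60 min. Normalised to no-inhibitor (0%) and 10 mM EDTA (100%); IC50 by 4-parameter fit.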

| IC50 | SMILES |
| --- | --- |
| 1 to 10 µM | CN(C)CCNC(=O)c1cccc(-c2cnn3ccc(Nc4ccc(Oc5ccccc5)cc4)nc23)c1 [Example 329, N-(2-Dimethylamino-ethyl)-3-[5-(4-phenoxy-phenylamino)-pyrazolo[1,5-a]pyrimidin-3-yl]-benzamide] |
| 1 to 10 µM | CC(=O)Nc1ccc(Nc2ccn3ncc(-c4cccc(N(C)C)c4)c3n2)cc1 [Example 331, N-{4-[3-(3-Dimethylamino-phenyl)-pyrazolo[1,5-a]pyrimidin-5-ylamino]-phenyl}-acetamide] |
| 1 to 10 µM | COc1ccc(Nc2ccn3ncc(-c4cccc(N(C)C)c4)c3n2)cn1 [Example 332, [3-(3-Dimethylamino-phenyl)-pyrazolo[1,5-a]pyrimidin-5-yl]-(6-methoxy-pyridin-3-yl)-amine] |
| 1 to 10 µM | COc1ccc(Nc2ccn3ncc(-c4cccc(N)c4)c3n2)cn1 [Example 337, [3-(3-Amino-phenyl)-pyrazolo[1,5-a]pyrimidin-5-yl]-(6-methoxy-pyridin-3-yl)-amine] |
| 1 to 10 µM | Nc1cccc(-c2cnn3ccc(Nc4ccc(O)cc4)nc23)c1 [Example 338, 4-[3-(3-Amino-phenyl)-pyrazolo[1,5-a]pyrimidin-5-ylamino]-phenol] |
| 1 to 10 µM | OC1CCC(Nc2ccn3ncc(-c4ccc(F)c(Cl)c4)c3n2)CC1 (stereo not drawn) [Example 373, 4-[3-(3-Chloro-4-fluoro-phenyl)-pyrazolo[1,5-a]pyrimidin-5-ylamino]-cyclohexanol] |
| 1 to 10 µM | c1ccc(-c2cnn3ccc(NCc4cccnc4)nc23)cc1 [Example 376, (3-Phenyl-pyrazolo[1,5-a]pyrimidin-5-yl)-pyridin-3-ylmethyl-amine] |
| < 1 µM | c1cncc(CNc2ccn3ncc(-c4cccc5ccccc45)c3n2)c1 [Example 377, (3-Naphthalen-1-yl-pyrazolo[1,5-a]pyrimidin-5-yl)-pyridin-3-ylmethyl-amine] |
| 1 to 10 µM | Fc1ccc(-c2cnn3ccc(NCc4cccnc4)nc23)cc1Cl [Example 379, [3-(3-Chloro-4-fluoro-phenyl)-pyrazolo[1,5-a]pyrimidin-5-yl]-pyridin-3-ylmethyl-amine] |
| < 1 µM | Clc1cccc(-c2cnn3ccc(NCc4ccncc4)nc23)c1 [Example 395, [3-(3-Chloro-phenyl)-pyrazolo[1,5-a]pyrimidin-5-yl]-pyridin-4-ylmethyl-amine] |
| 1 to 10 µM | FC(F)(F)c1cccc(-c2cnn3ccc(NCc4ccncc4)nc23)c1 [Example 397, Pyridin-4-ylmethyl-[3-(3-trifluoromethyl-phenyl)-pyrazolo[1,5-a]pyrimidin-5-yl]-amine] |
| < 1 µM | Fc1ccc(-c2cnn3ccc(NCc4ccncc4)nc23)cc1 [Example 398, [3-(4-Fluoro-phenyl)-pyrazolo[1,5-a]pyrimidin-5-yl]-pyridin-4-ylmethyl-amine] |
| 1 to 10 µM | Nc1ccc(C(=O)Nc2ccc(Nc3ccn4ncc(-c5ccc(F)cc5)c4n3)cc2)cc1 [Example 400, 4-Amino-N-{4-[3-(4-fluoro-phenyl)-pyrazolo[1,5-a]pyrimidin-5-ylamino]-phenyl}-benzamide] |
| 1 to 10 µM | OC1CCC(Nc2ccn3ncc(-c4ccc(F)cc4)c3n2)CC1 (stereo not drawn) [Example 401, 4-[3-(4-Fluoro-phenyl)-pyrazolo[1,5-a]pyrimidin-5-ylamino]-cyclohexanol] |
| 1 to 10 µM | Clc1cccc(-c2cnn3ccc(NCc4cccnc4)nc23)c1 [Example 402, [3-(3-Chloro-phenyl)-pyrazolo[1,5-a]pyrimidin-5-yl]-pyridin-3-ylmethyl-amine] |
| 1 to 10 µM | Fc1cccc(-c2cnn3ccc(NCc4cccnc4)nc23)c1 [Example 405, [3-(3-Fluoro-phenyl)-pyrazolo[1,5-a]pyrimidin-5-yl]-pyridin-3-ylmethyl-amine] |
| 1 to 10 µM | Fc1ccccc1-c1cnn2ccc(NCc3cccnc3)nc12 [Example 408, [3-(2-Fluoro-phenyl)-pyrazolo[1,5-a]pyrimidin-5-yl]-pyridin-3-ylmethyl-amine] |
| 1 to 10 µM | c1ccc2c(-c3cnn4ccc(Nc5ccc(N6CCOCC6)cc5)nc34)cccc2c1 [Example 412, (4-Morpholin-4-yl-phenyl)-(3-naphthalen-1-yl-pyrazolo[1,5-a]pyrimidin-5-yl)-amine] |
| < 1 µM | COc1cc(-c2cnn3ccc(NCc4ccncc4)nc23)cc(OC)c1OC [Example 418, Pyridin-4-ylmethyl-[3-(3,4,5-trimethoxy-phenyl)-pyrazolo[1,5-a]pyrimidin-5-yl]-amine] |
| 1 to 10 µM | COc1cc(-c2cnn3ccc(Nc4cc(OC)c(OC)c(OC)c4)nc23)ccc1O [Example 424, 2-Methoxy-4-[5-(3,4,5-trimethoxy-phenylamino)-pyrazolo[1,5-a]pyrimidin-3-yl]-phenol] |

| IC50 | SMILES |
| --- | --- |
| 1 to 10 µM | COc1ccc(-c2cnn3ccc(Nc4ccc(OC)nc4)nc23)cc1 [Example 425, [3-(4-Methoxy-phenyl)-pyrazolo[1,5-a]pyrimidin-5-yl]-(6-methoxy-pyridin-3-yl)-amine] |
| 1 to 10 µM | Cc1ccc(Nc2ccn3ncc(-c4cccc(CO)c4)c3n2)cc1NS(C)(=O)=O [Example 431, N-{5-[3-(3-Hydroxymethyl-phenyl)-pyrazolo[1,5-a]pyrimidin-5-ylamino]-2-methyl-phenyl}-methanesulfonamide] |
| 1 to 10 µM | COc1ccc(-c2cnn3ccc(Nc4ccc(O)cc4)nc23)c(OC)c1 [Example 435, 4-[3-(2,4-Dimethoxy-phenyl)-pyrazolo[1,5-a]pyrimidin-5-ylamino]-phenol] |
| 1 to 10 µM | COc1ccc(Nc2ccn3ncc(-c4cccc(C(C)=O)c4)c3n2)cn1 [Example 437, 1-{3-[5-(6-Methoxy-pyridin-3-ylamino)-pyrazolo[1,5-a]pyrimidin-3-yl]-phenyl}-ethanone] |
| 1 to 10 µM | COc1cccc(-c2cnn3ccc(Nc4cccc(Cl)c4)nc23)c1 [Example 444, (3-Chloro-phenyl)-[3-(3-methoxy-phenyl)-pyrazolo[1,5-a]pyrimidin-5-yl]-amine] |
| < 1 µM | CS(=O)(=O)Nc1cccc(-c2cnn3ccc(Nc4ccc(N5CCOCC5)cc4)nc23)c1 [Example 447, N-{3-[5-(4-Morpholin-4-yl-phenylamino)-pyrazolo[1,5-a]pyrimidin-3-yl]-phenyl}-methanesulfonamide] |
| 1 to 10 µM | CC(=O)Nc1cccc(-c2cnn3ccc(Nc4cccc(Cl)c4)nc23)c1 [Example 453, N-{3-[5-(3-Chloro-phenylamino)-pyrazolo[1,5-a]pyrimidin-3-yl]-phenyl}-acetamide] |
| 1 to 10 µM | COc1ccc(-c2cnn3ccc(Nc4cc(OC)c(OC)c(OC)c4)nc23)cc1OC [Example 462, [3-(3,4-Dimethoxy-phenyl)-pyrazolo[1,5-a]pyrimidin-5-yl]-(3,4,5-trimethoxy-phenyl)-amine] |
| 1 to 10 µM | COc1cc(Nc2ccn3ncc(-c4ccc(O)cc4)c3n2)cc(OC)c1OC [Example 463, 4-[5-(3,4,5-Trimethoxy-phenylamino)-pyrazolo[1,5-a]pyrimidin-3-yl]-phenol] |
| 1 to 10 µM | COc1ccc(Nc2ccn3ncc(-c4ccsc4)c3n2)cn1 [Example 464, (6-Methoxy-pyridin-3-yl)-(3-thiophen-3-yl-pyrazolo[1,5-a]pyrimidin-5-yl)-amine] |
| 1 to 10 µM | c1cc(-c2cnn3ccc(Nc4ccc(N5CCOCC5)cc4)nc23)cs1 [Example 467, (4-Morpholin-4-yl-phenyl)-(3-thiophen-3-yl-pyrazolo[1,5-a]pyrimidin-5-yl)-amine] |
| 1 to 10 µM | c1ccc(Oc2ccc(Nc3ccn4ncc(-c5ccncc5)c4n3)cc2)cc1 [Example 468, (4-Phenoxy-phenyl)-(3-pyridin-4-yl-pyrazolo[1,5-a]pyrimidin-5-yl)-amine] |
| 1 to 10 µM | c1cc(N2CCOCC2)ccc1Nc1ccn2ncc(-c3ccc4c(c3)OCO4)c2n1 [Example 472, (3-Benzo[1,3]dioxol-5-yl-pyrazolo[1,5-a]pyrimidin-5-yl)-(4-morpholin-4-yl-phenyl)-amine] |
| < 1 µM | COc1cc(-c2cnn3ccc(NC4CCC(O)CC4)nc23)cc(OC)c1OC (stereo not drawn) [Example 474, 4-[3-(3,4,5-Trimethoxy-phenyl)-pyrazolo[1,5-a]pyrimidin-5-ylamino]-cyclohexanol] |
| 1 to 10 µM | COc1ccc(-c2cnn3ccc(Nc4ccccc4)nc23)cc1OC [Example 478, [3-(3,4-Dimethoxy-phenyl)-pyrazolo[1,5-a]pyrimidin-5-yl]-phenyl-amine] |
| 1 to 10 µM | CCN(CC)CCCNc1ccn2ncc(-c3cccc(Cl)c3)c2n1 [Example 486, N′-[3-(3-chloro-phenyl)-pyrazolo[1,5-a]pyrimidin-5-yl]-N,N-diethyl-propane-1,3-diamine] |
| 1 to 10 µM | CCN(CC)CCCNc1ccn2ncc(-c3ccc(C)c(Cl)c3)c2n1 [Example 492, N′-[3-(3-Chloro-4-methyl-phenyl)-pyrazolo[1,5-a]pyrimidin-5-yl]-N,N-diethyl-propane-1,3-diamine] |
| 1 to 10 µM | c1csc(-c2cnn3ccc(NC4CCCCC4)nc23)c1 [Example 494, Cyclohexyl-(3-thiophen-2-yl-pyrazolo[1,5-a]pyrimidin-5-yl)-amine] |
| 1 to 10 µM | c1csc(-c2cnn3ccc(NC4CCCNC4)nc23)c1 (stereo not drawn) [Example 496, Piperidin-3-yl-(3-thiophen-2-yl-pyrazolo[1,5-a]pyrimidin-5-yl)-amine mono TFA salt] |
